For test [1], the target named is T1, human ETB receptor (Homo sapiens, UniProt P24530).
T1 construct: expressed in transfected cells; host or cells: COS7 cells
T1 sequence (P24530 27-442): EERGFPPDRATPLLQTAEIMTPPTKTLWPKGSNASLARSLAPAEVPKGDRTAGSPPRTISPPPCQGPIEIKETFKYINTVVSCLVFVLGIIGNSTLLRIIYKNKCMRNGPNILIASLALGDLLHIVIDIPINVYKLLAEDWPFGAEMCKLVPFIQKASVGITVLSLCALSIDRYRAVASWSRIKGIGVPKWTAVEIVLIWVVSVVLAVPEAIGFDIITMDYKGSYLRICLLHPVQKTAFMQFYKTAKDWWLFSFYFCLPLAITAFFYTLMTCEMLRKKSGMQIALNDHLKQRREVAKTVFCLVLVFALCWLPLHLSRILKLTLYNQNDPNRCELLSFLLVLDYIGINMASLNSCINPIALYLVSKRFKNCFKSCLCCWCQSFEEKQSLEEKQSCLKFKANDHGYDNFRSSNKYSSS
The experiment in a line: Endothelin binding inhibition, Binding Test #2: competition with 125I-ET-1 for ETB receptors on transfected COS7 cell membranes. In short, it runs like this: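 Membranes from COS7 cells transfected with human ETB receptor, prepared in HEPES pH 7.4 with aprotinin, MnCl2/DNase treatment at 37° C for 30 min. Test compounds compete with 125I-labeled ET-1 for receptor binding; membrane used at 1 μg/50 μL binding buffer.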

Test [2] addresses T2, human ETA receptors (Homo sapiens, UniProt P25101).
T2 construct: endogenous in cells; host or cells: TE 671 cells (ATCC HTB 139), membrane preparation
T2 sequence (P25101 21-427): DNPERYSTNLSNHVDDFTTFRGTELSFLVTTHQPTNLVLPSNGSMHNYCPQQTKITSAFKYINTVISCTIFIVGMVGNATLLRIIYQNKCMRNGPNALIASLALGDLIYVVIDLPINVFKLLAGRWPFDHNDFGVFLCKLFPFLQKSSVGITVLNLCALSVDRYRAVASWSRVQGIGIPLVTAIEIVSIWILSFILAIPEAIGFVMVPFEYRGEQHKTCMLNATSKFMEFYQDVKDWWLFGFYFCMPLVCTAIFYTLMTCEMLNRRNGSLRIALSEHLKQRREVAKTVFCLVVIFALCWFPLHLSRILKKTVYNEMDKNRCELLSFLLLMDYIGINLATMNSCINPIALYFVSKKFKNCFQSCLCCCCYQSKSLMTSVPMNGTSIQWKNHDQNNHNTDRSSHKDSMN
Kind of test: Endothelin binding inhibition, Binding Test #1: competition with 125I-ET-1 for ETA receptors on TE 671 cell membranes.

[3] abbreviates: incubation at 24° C. (values marked †).
The mark [4] stands for this setting: incubation at 4° C. (values without †).

Data on 24 compounds can be found in patent US6632829B2, “Sulfonamides and derivatives thereof that modulate the activity of endothelin” (Texas Biotechnology Corp., priority 1996, dated 2003).

As a reminder, the IC50 is the midpoint of a concentration-inhibition curve. High values mean lower potency, low ones higher potency. For the compound `COC(=O)c1cc(C)c(NC(=O)c2sccc2S(=O)(=O)Nc2onc(C)c2Cl)c(C)c1` [N-(4-chloro-3-methyl-5-isoxazolyl)-2-[(4-methoxycarbonyl-2,6-dimethyl)phenylaminocarbonyl]thiophene-3-sulfonamide], the IC50 amounted to 9780 nM in test [1] (setting [3]) and 0.266 nM in test [2] (setting [3]).
Take `Cc1cc(C)c(OCc2sccc2S(=O)(=O)Nc2onc(C)c2Br)c(C)c1` [N-(4-bromo-3-methyl-5-isoxazolyl)-2-[(2,4,6-trimethylphenoxy)methyl]thiophene-3-sulfonamide]: the values for the IC50 in test [1] (setting [3]) and in test [2] (setting [3]) were 3390 nM and 56.2 nM, respectively.
As to `Cc1cc(C)c(CNC(=O)c2sccc2S(=O)(=O)Nc2onc(C)c2Cl)c(C)c1CC#N` [N-4-chloro-3-methyl-5-isoxazolyl)-2-(3-cyanomethyl-2,4,6-trimethylbenzylaminocarbonyl)thiophene-3-sulfonamide], the IC50 in test [1] (setting [3]) turned out to be 81500 nM; in test [2] (setting [3]), 531 nM.
For `Cc1cc2c(cc1CCc1ccsc1S(=O)(=O)Nc1onc(C)c1Br)OCO2` [N-(4-bromo-3-methyl-5-isoxazolyl)-3-[2-methyl-4,5-(methylenedioxy)phenethyl]thiophene-2-sulfonamide] the same measures were about 5000 nM and about 100 nM.
The corresponding values for `Cc1noc(NS(=O)(=O)c2ccsc2C(=O)Cc2ccc3c(c2)OCO3)c1Br` [N-(4-bromo-3-methyl-5-isoxazolyl)-2-[(3,4-methylenedioxy)phenylacetyl]thiophene-3-sulfonamide] are 5500 nM and 9.1 nM.
For `CC(=O)OCCOc1cc2c(cc1NC(=O)c1sccc1S(=O)(=O)Nc1onc(C)c1Cl)OCO2` [N-(4-chloro-3-methyl-5-isoxazolyl)-2-[3,4-(methylenedioxy)-6-(2-acetoxyethoxy)]phenylaminocarbonyl]thiophene-3-sulfonamide] the same measures were about 18000 nM and about 20 nM.
For the compound `Cc1cc(CC(C)C)ccc1-c1ccsc1S(=O)(=O)Nc1onc(C)c1Br` [N-(4-bromo-3-methyl-5-isoxazolyl)-3-(4-iso-butyl-2-methylphenyl)thiophene-2-sulfonamide], the figures for the IC50 in test [1] (setting [3]) and in test [2] (setting [3]) were 1660 nM and 46.8 nM, respectively.
For `CC(=O)OCc1c(C)cc(C)c(NC(=O)c2sccc2S(=O)(=O)Nc2noc(C)c2Cl)c1C` [N-(4-chloro-5-methyl-3-isoxazolyl)-2-(3-acetoxymethyl-2,4,6-trimethylphenylaminocarbonyl)thiophene-3-sulfonamide] the same measures were 19700 nM and 0.51 nM.
For `Cc1noc(NS(=O)(=O)c2ccsc2C(=O)Cc2ccc3c(c2)OCO3)c1C` [N-(3,4-dimethyl-5-isoxazolyl)-2-[3,4-(methylenedioxy)phenylacetyl]thiophene-3-sulfonamide] the same measures were 12200 nM and 27.3 nM.
In the case of `CCc1ccc(-c2ccsc2S(=O)(=O)Nc2onc(C)c2Br)cc1` [N-(4-bromo-3-methyl-5-isoxazolyl)-3-(4-ethylphenyl)thiophene-2-sulfonamide], the IC50 is 43900 nM in test [1] (setting [3]) and 184 nM in test [2] (setting [4]).
In the case of `Cc1noc(NS(=O)(=O)c2ccsc2CC(O)c2ccc3c(c2)OCO3)c1Cl` (stereo not drawn) [N-(4-chloro-3-methyl-5-isoxazolyl)-2-[β-hydroxy(3,4-methylenedioxy)phenylethyl]thiophene-3-sulfonamide], the IC50 in test [1] (setting [3]) was 16000 nM; in test [2] (setting [3]) it was 53 nM.
As to `Cc1noc(NS(=O)(=O)c2ccsc2C(=O)Oc2ccc3c(c2)OCO3)c1Cl` [N-(4-chloro-3-methyl-5-isoxazolyl)-2-[3,4-(methylenedioxy)phenoxycarbonyl]thiophene-3-sulfonamide], the IC50 in test [1] (setting [3]) was 7400 nM; in test [2] (setting [3]) it was 6.5 nM.
On to `Cc1noc(NS(=O)(=O)c2c(Cc3ccc(N(C)C)cc3)sc3ccccc23)c1Cl` [N-(4-chloro-3-methyl-5-isoxazolyl)-2-(4-dimethylaminobenzyl)benzo[b]thiophene-3-sulfonamide], for which the half-inhibitory concentration (IC50) in test [1] (setting [4]) amounted to 477 nM; in test [1] (setting [3]) it was 1300 nM; in test [2] (setting [4]), 14 nM; in test [2] (setting [3]), 41 nM.
Regarding `COc1ccc(NC(=O)c2sccc2S(=O)(=O)Nc2onc(C)c2Cl)c(OC)c1` [N-(4-chloro-3-methyl-5-isoxazolyl)-2-[(2,4-dimethoxyphenyl)aminocarbonyl]thiophene-3-sulfonamide], the IC50 in test [1] (setting [3]) was 63100 nM; in test [2] (setting [3]), 158 nM.
For `COc1ccc(Cc2sc3ccccc3c2S(=O)(=O)Nc2onc(C)c2Br)cc1` [N-(4-bromo-3-methyl-5-isoxazolyl)-2-(4-methoxybenzyl)benzo[b]thiophene-3-sulfonamide] the same measures were 1500 nM and 51 nM.
What is called inhibition is the relative decrease from the control value, in per cent. For `Cc1noc(NS(=O)(=O)c2ccsc2C(=O)Oc2ccccc2)c1Br` [N-(4-bromo-3-methyl-5-isoxazolyl)-2-(phenoxycarbonyl)thiophene-3-sulfonamide], the inhibition at 100 µM in test [1] (read-out: ETB % inhibition @ 100 μM, @ 100 μM, incubation at 24° C.) turned out to be 20%. The IC50 in test [2] (setting [3]) stood at 2710 nM.
As for “N-(4-chloro-3-methyl-5-isoxazolyl)-2-[2-hydroxypropyl-4,5-(methylenedioxy)phenylaminocarbonyl]thiophene-3-sulfonamide”, the IC50 in test [1] (setting [3]) is 8300 nM; in test [2] (setting [3]), 7.3 nM.
For `Cc1noc(NS(=O)(=O)c2ccsc2C(=O)Oc2ccc3c(c2)OCO3)c1Br` [N-(4-bromo-3-methyl-5-isoxazolyl)-2-[(3,4-methylenedioxy)phenoxycarbonyl]thiophene-3-sulfonamide] the same measures were 6000 nM and 7.3 nM.
The corresponding values for `Cc1ccc(NC(=O)c2sccc2S(=O)(=O)Nc2onc(C)c2Cl)nc1` [N-(4-chloro-3-methyl-5-isoxazolyl)-2-[(3-methyl-6-pyridyl)aminocarbonyl]thiophene-3-sulfonamide] are 43700 nM and 23 nM.
For `Cc1noc(NS(=O)(=O)c2ccsc2C(=O)Cc2ccc3c(c2)OCO3)c1Cl` [N-(4-chloro-3-methyl-5-isoxazolyl)-2-[3,4-(methylenedioxy)phenylacetyl]thiophene-3-sulfonamide] the same measures were 6500 nM and 21 nM.
Regarding `COc1ccc(NC(=O)c2sccc2S(=O)(=O)Nc2onc(C)c2Cl)c(C)c1` [N-(4-chloro-3-methyl-5-isoxazolyl)-2-[4-methoxy-2-methylphenyl)aminocarbonyl]thiophene-3-sulfonamide], the IC50 came out at 140 nM in test [1] (setting [3]) and 27 nM in test [2] (setting [3]).
In the case of `Cc1noc(NS(=O)(=O)c2c(Cc3ccc(Cl)cc3)sc3ccccc23)c1C` [N-(3,4-dimethyl-5-isoxazolyl)-2-(4-chlorobenzyl)benzo[b]thiophene-3-sulfonamide], the half-maximal inhibitory concentration (IC50) in test [1] (setting [3]) is 4700 nM; in test [2] (setting [3]), 210 nM.
`Cc1noc(NS(=O)(=O)c2ccsc2C(=O)Nc2cc3c(cc2CNS(C)(=O)=O)OCO3)c1Cl` [N-(4-chloro-3-methyl-5-isoxazolyl)-2-[2-methanesulfonylaminomethyl)-4,5-(methylenedioxy)phenylaminocarbonyl]thiophene-3-sulfonamide]: the results for the IC50 in test [1] (setting [3]) and in test [2] (setting [3]) were 19800 nM and 6.8 nM, respectively.
For `CCCc1cc2c(cc1OC(=O)c1sccc1S(=O)(=O)Nc1onc(C)c1Br)OCO2` [N-(4-bromo-3-methyl-5-isoxazolyl)-2-{[2-propyl-4,5-(methylenedioxy)phenoxy]carbonyl}thiophene-3-sulfonamide] the same measures were 11900 nM and 138 nM.
